We go through 9 compounds from ChEMBL document CHEMBL1128274, “6-Aminoquinolones: a new class of quinolone antibacterials?” (1995).

≈ marks a conversion by molar mass, not a printed value.

Common to all, as to type: functional
In assay [1] the test system is Staphylococcus aureus. As to the kind of experiment: Tested in vitro for inhibitory activity against gram positive bacteria Staphylococcus aureus MPR 5 strain.
In the next assay the test system is Enterobacter cloacae. Description: Tested in vitro for inhibitory activity against gram negative bacteria Enterobacter cloacae OMNFI 174 strain.
For another assay, the system named is Enterococcus faecalis. As to the kind of experiment: Tested in vitro for inhibitory activity against gram positive bacteria Streptococcus faecalis LEP Br strain.
The subject of assay [2] is Staphylococcus epidermidis. Description: Tested in vitro for inhibitory activity against gram positive bacteria Staphylococcus epidermidis CPHL A2 strain.
The test system of assay [3] is Escherichia coli. As to the kind of experiment: Tested in vitro for inhibitory activity against gram negative bacteria Escherichia coli ISF 432 strain.
The next assay deals with Klebsiella pneumoniae. Description: Tested in vitro for inhibitory activity against gram negative bacteria Klebsiella pneumoniae ATCC 10031 strain.
The next assay concerns Pseudomonas aeruginosa. As to the kind of experiment: Tested in vitro for inhibitory activity against gram negative bacteria Pseudomonas aeruginosa ATCC 9027 strain.
In assay [4] the test system is Staphylococcus aureus. As to the kind of experiment: Tested in vitro for inhibitory activity against gram positive bacteria Staphylococcus aureus ATCC 6538 strain.
For assay [5], the system named is Acinetobacter calcoaceticus. As to the kind of experiment: Tested in vitro for inhibitory activity against gram negative bacteria Acinetobacter calcoaceticus OSMPV 113 strain.
The subject of the next assay is Providencia stuartii. Description: Tested in vitro for inhibitory activity against gram negative bacteria Providencia stuartii CNUR 5 strain.
Assay [6] relates to Staphylococcus epidermidis. As to the kind of experiment: Tested in vitro for inhibitory activity against gram positive bacteria Staphylococcus epidermidis HCF berset C strain.
Another assay deals with Shigella. As to the kind of experiment: Tested in vitro for inhibitory activity against gram negative bacteria Shigella enteritidis.
The subject of assay [7] is Escherichia coli. Description: Tested in vitro for inhibitory activity against gram negative bacteria Escherichia coli ATCC 8739 strain.

For `CN1CCN(c2cc3c(cc2N)c(=O)c(C(=O)O)cn3-c2ccc(F)cc2)CC1`, the minimum inhibitory concentration (MIC) amounted to 4 µg/mL (≈ 10.1 µM) in the assay with Staphylococcus aureus [1]; 4 µg/mL (≈ 10.1 µM) with Enterobacter cloacae; 64 µg/mL (≈ 161 µM) against Enterococcus faecalis; 8 µg/mL (≈ 20.2 µM) in assay [2]; 0.12 µg/mL (≈ 0.303 µM) against Escherichia coli [3]; 0.12 µg/mL (≈ 0.303 µM) against Klebsiella pneumoniae. The MIC against Pseudomonas aeruginosa is 8 µg/mL (≈ 20.2 µM); with Staphylococcus aureus [4], 8 µg/mL (≈ 20.2 µM); in [5] it was 16 µg/mL (≈ 40.4 µM); with Providencia stuartii it was 4 µg/mL (≈ 10.1 µM); in assay [6], 8 µg/mL (≈ 20.2 µM); in the assay on Shigella, 4 µg/mL (≈ 10.1 µM). In the assay on Escherichia coli [7], the MIC stood at 0.12 µg/mL (≈ 0.303 µM).
As to `NCCSc1cc2c(cc1N)c(=O)c(C(=O)O)cn2C1CC1`, the minimal inhibitory concentration (MIC) was 128 µg/mL (≈ 401 µM) in the assay on Staphylococcus aureus [1]; 128 µg/mL (≈ 401 µM) with Enterobacter cloacae; 128 µg/mL (≈ 401 µM) in the assay on Enterococcus faecalis; 128 µg/mL (≈ 401 µM) in [2]; 1 µg/mL (≈ 3.13 µM) against Escherichia coli [3]; 2 µg/mL (≈ 6.26 µM) against Klebsiella pneumoniae. Also, the MIC (in the assay on Pseudomonas aeruginosa; in the assay on Staphylococcus aureus [4]; in assay [5]; in the assay with Providencia stuartii; in [6]; in the assay with Shigella) was 128 µg/mL (≈ 401 µM) each time. The compound also yielded an MIC against Escherichia coli [7] of 1 µg/mL (≈ 3.13 µM).
`CC(C)(C)n1cc(C(=O)O)c(=O)c2cc(N)c(N3CCc4ccccc4C3)cc21`: the MIC amounted to 0.5 µg/mL (≈ 1.28 µM) with Staphylococcus aureus [1]; 8 µg/mL (≈ 20.4 µM) with Enterobacter cloacae; 8 µg/mL (≈ 20.4 µM) against Enterococcus faecalis; 0.5 µg/mL (≈ 1.28 µM) in [2]; 0.12 µg/mL (≈ 0.307 µM) against Escherichia coli [3]; 0.12 µg/mL (≈ 0.307 µM) in the assay on Klebsiella pneumoniae. For the same compound, the MIC in the assay on Pseudomonas aeruginosa is 32 µg/mL (≈ 81.7 µM); against Staphylococcus aureus [4], 0.25 µg/mL (≈ 0.639 µM); in [5], 2 µg/mL (≈ 5.11 µM); with Providencia stuartii it was 4 µg/mL (≈ 10.2 µM); in assay [6] it was 1 µg/mL (≈ 2.55 µM); against Shigella it was 8 µg/mL (≈ 20.4 µM). This compound returned an MIC in the assay with Escherichia coli [7] of 0.12 µg/mL (≈ 0.307 µM).
As to `CN1CCN(c2nc3c(c(N)c2N)c(=O)c(C(=O)O)cn3C2CC2)CC1`, the minimal inhibitory concentration (MIC) was 2 µg/mL (≈ 5.58 µM) in the assay on Staphylococcus aureus [1]; 0.25 µg/mL (≈ 0.698 µM) against Enterobacter cloacae; 8 µg/mL (≈ 22.3 µM) against Enterococcus faecalis; 2 µg/mL (≈ 5.58 µM) in assay [2]; 0.01 µg/mL (≈ 0.0279 µM) in the assay with Escherichia coli [3]; 0.01 µg/mL (≈ 0.0279 µM) in the assay with Klebsiella pneumoniae. Also, the minimum inhibitory concentration (MIC) in the assay on Pseudomonas aeruginosa was 8 µg/mL (≈ 22.3 µM); in the assay with Staphylococcus aureus [4] it was 2 µg/mL (≈ 5.58 µM); in [5] it was 0.5 µg/mL (≈ 1.4 µM); against Providencia stuartii, 0.5 µg/mL (≈ 1.4 µM); in assay [6] it was 2 µg/mL (≈ 5.58 µM); against Shigella, 0.25 µg/mL (≈ 0.698 µM). In the assay on Escherichia coli [7], this compound displayed an MIC of 0.25 µg/mL (≈ 0.698 µM).
With `C[C@@H]1CN(c2cc3c(cc2N)c(=O)c(C(=O)O)cn3C2CC2)C[C@H](C)N1`, the MIC is 8 µg/mL (≈ 22.4 µM) in the assay with Staphylococcus aureus [1]; 0.5 µg/mL (≈ 1.4 µM) in the assay with Enterobacter cloacae; 32 µg/mL (≈ 89.8 µM) against Enterococcus faecalis; 2 µg/mL (≈ 5.61 µM) in assay [2]; 0.03 µg/mL (≈ 0.0842 µM) in the assay on Escherichia coli [3]; 0.03 µg/mL (≈ 0.0842 µM) in the assay with Klebsiella pneumoniae. The MIC was 2 µg/mL (≈ 5.61 µM) against Pseudomonas aeruginosa; 8 µg/mL (≈ 22.4 µM) against Staphylococcus aureus [4]; 8 µg/mL (≈ 22.4 µM) in assay [5]; 4 µg/mL (≈ 11.2 µM) in the assay with Providencia stuartii; 4 µg/mL (≈ 11.2 µM) in assay [6]; 0.25 µg/mL (≈ 0.701 µM) against Shigella. In the assay on Escherichia coli [7], this compound came in with an MIC of 0.03 µg/mL (≈ 0.0842 µM).
With `Nc1cc2c(=O)c(C(=O)O)cn(-c3ccc(F)cc3)c2cc1N1CCSCC1`, the MIC came out at 1 µg/mL (≈ 2.5 µM) against Staphylococcus aureus [1]; 4 µg/mL (≈ 10 µM) in the assay with Enterobacter cloacae; 128 µg/mL (≈ 320 µM) in the assay on Enterococcus faecalis; 4 µg/mL (≈ 10 µM) in assay [2]; 0.03 µg/mL (≈ 0.0751 µM) in the assay with Escherichia coli [3]; 0.03 µg/mL (≈ 0.0751 µM) against Klebsiella pneumoniae. Besides, the minimum inhibitory concentration (MIC) was 128 µg/mL (≈ 320 µM) against Pseudomonas aeruginosa; 0.5 µg/mL (≈ 1.25 µM) in the assay with Staphylococcus aureus [4]; 4 µg/mL (≈ 10 µM) in assay [5]; 4 µg/mL (≈ 10 µM) in the assay on Providencia stuartii; 4 µg/mL (≈ 10 µM) in assay [6]; 4 µg/mL (≈ 10 µM) in the assay with Shigella. In the assay with Escherichia coli [7], this compound registered an MIC of 0.06 µg/mL (≈ 0.15 µM).
In the case of `O=C(O)c1cn(C2CC2)c2c(F)c(N3CCSCC3)c(F)cc2c1=O`, the MIC with Staphylococcus aureus [1] was determined as 0.03 µg/mL (≈ 0.0819 µM); against Enterobacter cloacae, 0.25 µg/mL (≈ 0.682 µM); in the assay on Enterococcus faecalis it was 0.5 µg/mL (≈ 1.36 µM); in assay [2], 0.06 µg/mL (≈ 0.164 µM); against Escherichia coli [3], 0.008 µg/mL (≈ 0.0218 µM); against Klebsiella pneumoniae it was 0.008 µg/mL (≈ 0.0218 µM). In addition, the minimum inhibitory concentration (MIC) is 1 µg/mL (≈ 2.73 µM) against Pseudomonas aeruginosa; 0.03 µg/mL (≈ 0.0819 µM) against Staphylococcus aureus [4]; 1 µg/mL (≈ 2.73 µM) in assay [5]; 0.12 µg/mL (≈ 0.328 µM) against Providencia stuartii; 0.06 µg/mL (≈ 0.164 µM) in [6]; 0.25 µg/mL (≈ 0.682 µM) against Shigella. In the assay with Escherichia coli [7], this compound displayed a minimal inhibitory concentration (MIC) of 0.01 µg/mL (≈ 0.0273 µM).
Regarding `O=C(O)c1cn(C2CC2)c2cc(N3CCNCC3)c(F)cc2c1=O` [CIPROFLOXACIN], the minimum inhibitory concentration (MIC) against Staphylococcus aureus [1] came to 0.12 µg/mL (≈ 0.362 µM); in the assay on Enterococcus faecalis, 0.5 µg/mL (≈ 1.51 µM); in assay [2] it was 0.06 µg/mL (≈ 0.181 µM); against Klebsiella pneumoniae, 0.03 µg/mL (≈ 0.0905 µM); against Pseudomonas aeruginosa, 0.06 µg/mL (≈ 0.181 µM); with Staphylococcus aureus [4] it was 0.12 µg/mL (≈ 0.362 µM). The minimal inhibitory concentration (MIC) was 0.06 µg/mL (≈ 0.181 µM) in [5], 0.06 µg/mL (≈ 0.181 µM) with Providencia stuartii, 0.12 µg/mL (≈ 0.362 µM) in assay [6] and 0.03 µg/mL (≈ 0.0905 µM) against Shigella.
Consider `N#CCN1CCN(c2cc3c(cc2N)c(=O)c(C(=O)O)cn3C2CC2)CC1`, for which the minimum inhibitory concentration (MIC) was found to be 64 µg/mL (≈ 174 µM) in the assay on Staphylococcus aureus [1]; 2 µg/mL (≈ 5.44 µM) in the assay with Enterobacter cloacae; 64 µg/mL (≈ 174 µM) in [2]; 2 µg/mL (≈ 5.44 µM) in the assay on Escherichia coli [3]; 2 µg/mL (≈ 5.44 µM) in the assay with Klebsiella pneumoniae; 64 µg/mL (≈ 174 µM) in the assay on Pseudomonas aeruginosa. The minimal inhibitory concentration (MIC) against Staphylococcus aureus [4] is 64 µg/mL (≈ 174 µM); in assay [5] it was 64 µg/mL (≈ 174 µM); in the assay on Providencia stuartii, 2 µg/mL (≈ 5.44 µM); in [6], 64 µg/mL (≈ 174 µM); in the assay on Shigella, 32 µg/mL (≈ 87.1 µM); against Escherichia coli [7], 4 µg/mL (≈ 10.9 µM).

The term MIC denotes the smallest concentration in the dilution series that meets the test's criterion for growth inhibition.
